Columns and labels:
activated platelets = experiment: TF-dependent procoagulant activity (Actichrome TF assay); assay type: cell-based, human; settings: stimulated platelets (fibrinogen + thrombin)
Description: (§1) CD34+ stem cells were isolated from human umbilical cord blood and were differentiated into megakaryocytes that produce proplatelets using methods that we have previously described^18. Leukocyte-depleted human platelets were isolated from healthy volunteers using previously described methods^18,29. For all of the platelet studies, residual leukocytes were removed from the washed preparations by CD45+ bead selection as previously described^1. […] Platelets were resuspended in M199 serum-free culture medium^1,2. Platelets were left quiescent or allowed to adhere to immobilized human fibrinogen (Calbiochem) in the presence of thrombin (0.05 U/ml; Sigma-Aldrich). Select studies were also conducted with suspended platelets that were activated with ADP, collagen, or thrombin. […] For translational inhibition, platelets were isolated and preincubated for 2 h in the presence of vehicle (water) or puromycin as previously described^2.
TF-dependent procoagulant activity was calculated with an Actichrome TF assay (American Diagnostica) as previously described^13. […] Intact cellular membranes and microparticles were immediately placed in 25 μl of kit assay buffer and TF-dependent procoagulant activity was calculated. […]

Clk1 = Clk1 (Homo sapiens, UniProt P49759); experiment: Immune complex kinase assay for Clk1 activity in platelets (SF2/ASF substrate); assay type: cell-based; settings: stimulated platelets (fibrinogen + thrombin), pretreated; vs vehicle
Description: Leukocyte-depleted human platelets were isolated from healthy volunteers using previously described methods^18,29. For all of the platelet studies, residual leukocytes were removed from the washed preparations by CD45+ bead selection as previously described^1. […] Platelets were resuspended in M199 serum-free culture medium^1,2. Platelets were left quiescent or allowed to adhere to immobilized human fibrinogen (Calbiochem) in the presence of thrombin (0.05 U/ml; Sigma-Aldrich). […] For translational inhibition, platelets were isolated and preincubated for 2 h in the presence of vehicle (water) or puromycin as previously described^2.
Immune complex kinase assay for Clk1 activity. Clk1 activity in platelets was determined using an immune complex kinase assay. […] Kinase assays were performed by addition of recombinant SF2/ASF (Protein One) in the presence of γ-[^32P]ATP (MP Biomedicals). At the end of this incubation period, the agarose beads and immune complexes were removed by centrifugation, and the unbound sample, which contained SF2/ASF, was resolved by SDS-PAGE.

TF pre-mRNA [1] = experiment: TF pre-mRNA splicing in activated platelets (PCR); assay type: cell-based, human; settings: platelets adherent to fibrinogen, coactivated with thrombin 2 h
Description: as §1, with “described^2. For most of the TF pre-mRNA studies, primers that targeted sequences in exon four ([NT] ID NO: 1) and five ([NT] ID NO: 2), and thus spanned intron four, were used to determine endogenous splicing of TF pre-mRNA in platelets. Indirect in situ hybridization or direct in situ PCR was used to detect TF pre-mRNA in megakaryocytes and platelets as previously described^18. Primers that detected alternatively spliced human […] used as previously described^3. […]” for “described^2.”

TF protein = TF protein expression in platelets and platelet-derived microparticles (Western blot); assay type: cell-based, human; settings: activated platelets, 30 min or 4 h
Description: as §1
Detailed strategies for protein detection by flow cytometry, Western blot analysis, and immunocytochemistry have been previously published^18,29. A polyclonal antibody against human TF (pAb CL 20150A; Affinity Biologicals) was used under nonreducing conditions to detect TF protein by Western analysis. […] For the in situ experiments, polymerized actin was detected with Alexa fluor 488 phalloidin (Molecular Probes). […]

human plasma = experiment: Plasma clot formation with membranes from activated platelets; assay type: cell-based; settings: membranes of platelets activated 5 min or 2 h
Procedure: FIG. 5F illustrates clot formation in plasma that is incubated with membranes isolated from quiescent platelets or platelets activated with fibrinogen and thrombin for 5 min (left) or 2 h (right). The white bars represent activated platelets that were incubated with a neutralizing antibody directed against tissue factor (Anti-TF). The data in FIGS. 5D, 5E, an 5F represent the mean±SEM of six independent experiments.
FIG. 8B is a western blot analysis showing TF protein expression in platelets and platelet-derived microparticles. […] Recombinant TF was used as a positive control. FIG. 8C depicts TF-dependent procoagulant activity in freshly isolated platelets or platelets activated, as in FIG. 2B, in the presence or absence of the Clk inhibitor. […] A single asterisk (*) indicates a statistically significant difference (P<0.05) in TF-dependent procoagulant activity between freshly isolated (baseline) and activated platelets; the double asterisk (**) represents a significant difference (P<0.05) between activated platelets under untreated or treated conditions. […] The activated platelets were pretreated with either the Clk inhibitor (Clk Inh) or DMSO. The data represent the mean±SEM of five independent experiments. […]
Therefore, the affect of platelet-derived TF on plasma clotting times was determined. […]

platelets = experiment: Other platelet functional responses (immunocytochemistry); assay type: cell-based, human; settings: fibrinogen + thrombin, 1 h
Procedure: After 1 h, the cells were prepared for immunocytochemical detection (red staining) of Clk1 (top) or β-tubulin (bottom). The green stain in each panel identifies polymerized actin.
Detailed strategies for protein detection by flow cytometry, Western blot analysis, and immunocytochemistry have been previously published^18,29. A polyclonal antibody against human TF (pAb CL 20150A; Affinity Biologicals) was used under nonreducing conditions to detect TF protein by Western analysis. Antibodies directed against TF (mAb 550252; BD Biosciences), Clk family members (Abgent), or β-tubulin (Sigma-Aldrich) were used for immunocytochemical studies. For the in situ experiments, polymerized actin was detected with Alexa fluor 488 phalloidin (Molecular Probes). Specificity was confirmed by parallel studies with nonimmune IgG or deletion of the primary antibody. Detailed strategies for protein detection by Western analysis and immunocytochemistry have been previously published^1,2. Flow cytometric analysis of surface-expressed CD14, CD45, and CD162 (PSGL-1) was performed on washed platelet preparations before and after CD45 depletion, on CD45 positively selected cells, and on purified monocytes (FIG. 1).

mClk3 = mClk3 (Mus musculus, UniProt O35492); settings: cited from earlier work
SRPK1 = SRPK1 (Homo sapiens, UniProt Q96SB4); settings: at concentrations up to 1 μM; cited from earlier work
SRPK2 = SRPK2 (Homo sapiens, UniProt P78362); settings: at concentrations up to 1 μM; cited from earlier work
PKA = settings: at concentrations up to 1 μM; cited from earlier work
PKC = settings: at concentrations up to 1 μM; cited from earlier work
TF pre-mRNA [2] = experiment: TF pre-mRNA splicing in platelets of subjects receiving medication; assay type: in vivo, human; settings: for signal-dependent TF pre-mRNA splicing: in the elderly; for impact on TF pre-mRNA splicing: subjects receiving the drug
IL-1β pre-mRNA = IL-1β pre-mRNA splicing in platelets of subjects receiving medication; assay type: in vivo, human; settings: in young subjects

Clk1, sequence (P49759 whole entry): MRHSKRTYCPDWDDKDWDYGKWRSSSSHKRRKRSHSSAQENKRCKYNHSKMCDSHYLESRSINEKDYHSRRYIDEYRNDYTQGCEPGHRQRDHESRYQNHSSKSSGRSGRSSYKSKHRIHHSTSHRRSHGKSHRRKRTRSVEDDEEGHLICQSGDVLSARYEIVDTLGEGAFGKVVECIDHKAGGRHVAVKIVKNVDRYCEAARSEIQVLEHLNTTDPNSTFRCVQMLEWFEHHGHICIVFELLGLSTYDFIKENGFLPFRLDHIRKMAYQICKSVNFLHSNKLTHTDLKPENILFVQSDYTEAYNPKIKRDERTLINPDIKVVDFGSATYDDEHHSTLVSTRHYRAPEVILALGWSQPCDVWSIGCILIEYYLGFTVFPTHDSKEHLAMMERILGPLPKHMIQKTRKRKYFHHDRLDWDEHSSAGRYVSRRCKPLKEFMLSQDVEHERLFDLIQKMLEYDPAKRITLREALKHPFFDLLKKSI
SRPK2, sequence (P78362 whole entry, species assumed): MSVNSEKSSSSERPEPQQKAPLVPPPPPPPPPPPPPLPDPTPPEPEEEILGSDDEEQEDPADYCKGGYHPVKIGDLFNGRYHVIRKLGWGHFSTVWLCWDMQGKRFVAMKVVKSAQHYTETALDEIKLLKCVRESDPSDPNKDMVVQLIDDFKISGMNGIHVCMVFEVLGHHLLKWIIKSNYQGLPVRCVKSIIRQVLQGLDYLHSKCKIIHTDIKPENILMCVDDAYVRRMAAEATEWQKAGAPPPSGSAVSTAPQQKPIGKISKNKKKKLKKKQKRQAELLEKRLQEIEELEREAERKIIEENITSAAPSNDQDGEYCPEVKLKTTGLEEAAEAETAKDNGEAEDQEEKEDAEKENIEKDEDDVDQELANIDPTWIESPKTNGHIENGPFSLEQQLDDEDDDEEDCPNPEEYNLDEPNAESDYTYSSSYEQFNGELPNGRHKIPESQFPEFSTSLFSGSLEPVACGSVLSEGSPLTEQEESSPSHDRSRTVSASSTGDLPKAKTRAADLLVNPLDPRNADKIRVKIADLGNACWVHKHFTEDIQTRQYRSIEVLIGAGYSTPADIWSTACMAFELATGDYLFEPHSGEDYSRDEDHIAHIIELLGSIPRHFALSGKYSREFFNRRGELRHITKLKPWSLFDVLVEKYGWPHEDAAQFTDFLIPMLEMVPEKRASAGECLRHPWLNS
mClk3, sequence (O35492 whole entry): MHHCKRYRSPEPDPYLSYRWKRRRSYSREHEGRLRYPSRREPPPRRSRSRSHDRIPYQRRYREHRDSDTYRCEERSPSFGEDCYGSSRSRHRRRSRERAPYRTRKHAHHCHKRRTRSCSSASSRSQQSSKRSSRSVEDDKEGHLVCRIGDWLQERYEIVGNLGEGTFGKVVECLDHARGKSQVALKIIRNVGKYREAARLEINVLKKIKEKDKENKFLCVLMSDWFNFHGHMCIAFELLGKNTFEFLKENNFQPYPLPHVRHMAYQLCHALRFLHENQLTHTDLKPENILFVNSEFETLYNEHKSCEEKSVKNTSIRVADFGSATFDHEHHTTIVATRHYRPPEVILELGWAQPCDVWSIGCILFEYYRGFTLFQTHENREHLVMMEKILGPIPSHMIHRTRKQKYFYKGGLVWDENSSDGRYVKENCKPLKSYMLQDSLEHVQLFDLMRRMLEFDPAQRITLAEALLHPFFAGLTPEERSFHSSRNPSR
SRPK1, sequence (Q96SB4 whole entry, species assumed): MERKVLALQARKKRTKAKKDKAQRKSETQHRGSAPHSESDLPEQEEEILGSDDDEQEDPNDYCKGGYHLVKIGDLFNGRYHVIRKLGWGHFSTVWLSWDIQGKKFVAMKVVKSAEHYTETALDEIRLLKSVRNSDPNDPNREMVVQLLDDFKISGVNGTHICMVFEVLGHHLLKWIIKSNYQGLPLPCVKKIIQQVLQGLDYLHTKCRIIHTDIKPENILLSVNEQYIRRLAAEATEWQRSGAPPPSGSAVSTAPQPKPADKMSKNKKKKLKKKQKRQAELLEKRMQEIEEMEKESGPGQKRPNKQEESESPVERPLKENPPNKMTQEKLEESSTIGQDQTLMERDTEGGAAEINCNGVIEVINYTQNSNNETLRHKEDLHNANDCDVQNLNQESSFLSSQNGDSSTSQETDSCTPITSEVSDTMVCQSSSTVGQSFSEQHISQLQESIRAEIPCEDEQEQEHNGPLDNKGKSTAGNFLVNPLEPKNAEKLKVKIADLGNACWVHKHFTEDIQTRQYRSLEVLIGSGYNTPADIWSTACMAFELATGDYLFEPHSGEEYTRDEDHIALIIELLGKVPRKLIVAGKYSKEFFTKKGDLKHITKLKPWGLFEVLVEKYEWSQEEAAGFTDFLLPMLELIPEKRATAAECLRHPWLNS

Molecule: COc1ccc(C[C@H](N)C(=O)N[C@H]2[C@@H](O)[C@H](n3cnc4c(N(C)C)ncnc43)O[C@@H]2CO)cc1 [Puromycin]
- TF-dependent procoagulant activity (activated platelets): significantly (P<0.05) reduced

Molecule: CCN1/C(=C/C(C)=O)Sc2ccc(OC)cc21 [Tg003, (Z)-1-(3-Ethyl-5-methoxy-2,3-dihydrobenzothiazol-2-ylidene)propan-2-one]
- Clk1-dependent SF2/ASF phosphorylation (Clk1): suppressed
- processing of TF pre-mRNA (TF pre-mRNA [1]): prevented
- expression of TF protein (TF protein): blocked
- TF-dependent procoagulant activity (activated platelets): significantly (P<0.05) reduced
- onset of plasma clot formation (human plasma): delayed
- other platelet functional responses (adherence and spreading, actin polymerization, tubulin organization, Clk1 redistribution) (platelets): no effect
- IC50 (mClk3): > 10 µM
- effect on activity of SRPK1 (SRPK1): does not affect
- effect on activity of SRPK2 (SRPK2): does not affect
- effect on activity of PKA (PKA): does not affect
- effect on activity of PKC (PKC): does not affect

Molecule: CC(=O)Oc1ccccc1C(=O)O [aspirin]
- signal-dependent TF pre-mRNA splicing (TF pre-mRNA [2]): do not block
- impact on TF pre-mRNA splicing (TF pre-mRNA [2]): do not appear to have a significant impact
- IL-1β pre-mRNA splicing (IL-1β pre-mRNA): do not block

Molecule: heparin
- signal-dependent TF pre-mRNA splicing (TF pre-mRNA [2]): do not block
- impact on TF pre-mRNA splicing (TF pre-mRNA [2]): do not appear to have a significant impact
- IL-1β pre-mRNA splicing (IL-1β pre-mRNA): do not block

— patent publication US20090042869A1, “SIGNAL-DEPENDENT SPLICING OF TISSUE FACTOR PRE-mRNA IN [sequence] CELLS” (UNIVERSITY OF UTAH RESEARCH FOUNDATION, priority 2007, published 2009)
